Data from US20170114049A1, “2,5-DISUBSTITUTED CYCLOPENTANE CARBOXYLIC ACIDS FOR THE TREATMENT OF RESPIRATORY TRACT DISEASES” (BAYER PHARMA AKTIENGESELLSCHAFT, priority 2014, published 2017).
pIC50: −log10 of the molar value. Like-named read-outs stand apart in the source and are kept apart here.

Legend:
Type in all cases: biochemical
[1] = target: T1, human macrophage elastase (HME/hMMP-12) (Homo sapiens, UniProt P39900); experiment: In vitro HME inhibition test (standard or high-sensitivity)
T1 construct: 0.5 nM HME; purchased R&D Systems 917-MP
T1 sequence (P39900 106-470): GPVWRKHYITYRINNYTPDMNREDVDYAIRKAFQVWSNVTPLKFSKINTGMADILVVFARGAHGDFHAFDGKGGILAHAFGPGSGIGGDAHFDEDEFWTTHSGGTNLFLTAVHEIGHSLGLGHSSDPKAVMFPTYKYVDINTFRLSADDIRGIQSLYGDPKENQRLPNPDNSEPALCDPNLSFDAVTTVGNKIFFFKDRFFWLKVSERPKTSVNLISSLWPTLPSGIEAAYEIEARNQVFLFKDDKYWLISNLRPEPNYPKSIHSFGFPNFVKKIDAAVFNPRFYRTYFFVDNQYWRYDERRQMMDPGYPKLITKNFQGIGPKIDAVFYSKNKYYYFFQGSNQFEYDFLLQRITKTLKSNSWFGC
Method: The potency of the compounds according to the invention with respect to HME (MMP-12) is determined in an in vitro inhibition test. The HME-mediated amidolytic cleavage of a suitable peptide substrate leads to an increase in fluorescent light therein. The signal intensity of the fluorescent light is directly proportional to the enzyme activity. The active concentration of a test compound at which half the enzyme is inhibited (50% signal intensity of the fluorescent light) is reported as the IC50 value.
In a 384 hole microtiter plate, in a total test volume of 41 μl, the test buffer (0.1 M HEPES pH 7.4, 0.15 M NaCl, 0.03 M CaCl2, 0.004 mM ZnCl2, 0.02 M EDTA, 0.005% Brij®), the enzyme (0.5 nM HME; from R&D Systems, 917-MP, autocatalytic activation according to the manufacturer's instructions) and the intramolecularly quenched substrate [5 μM Mca-Pro-Leu-Gly-Leu-Glu-Glu-Ala-Dap(Dnp)-NH2; Bachem, M-2670] are incubated in the absence and presence of the test substance (as a solution in DMSO) at 37° C. for two hours. The fluorescence intensity of the test mixtures is measured (excitation […], emission 393 nm). The IC50 values are ascertained by plotting the fluorescent light intensity against the active ingredient concentration.
In this case, an enzyme concentration ten times lower is used (final concentration, for example, 0.05 nM) in order to achieve an elevated test sensitivity. The incubation period chosen for the test is correspondingly longer (for example 16 hours).

MMP-16 = target: T2, MMP-16 (Homo sapiens, UniProt P51512); experiment: In vitro MMP-16 inhibition test
T2 construct: purchased R&D Systems 1785-MP
T2 sequence (P51512 120-607): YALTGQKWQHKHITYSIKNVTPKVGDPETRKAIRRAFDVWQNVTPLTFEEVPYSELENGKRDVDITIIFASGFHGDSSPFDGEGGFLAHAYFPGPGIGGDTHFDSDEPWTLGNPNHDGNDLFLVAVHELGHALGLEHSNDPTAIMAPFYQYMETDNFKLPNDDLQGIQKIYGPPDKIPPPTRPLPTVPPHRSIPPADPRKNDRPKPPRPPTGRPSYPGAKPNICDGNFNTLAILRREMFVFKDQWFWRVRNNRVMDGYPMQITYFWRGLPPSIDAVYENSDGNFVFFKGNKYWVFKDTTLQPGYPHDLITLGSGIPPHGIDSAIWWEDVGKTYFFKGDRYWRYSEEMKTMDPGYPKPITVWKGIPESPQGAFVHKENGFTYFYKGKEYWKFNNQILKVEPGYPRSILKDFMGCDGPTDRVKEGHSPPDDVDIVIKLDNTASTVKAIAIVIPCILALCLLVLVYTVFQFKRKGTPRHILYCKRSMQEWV
Text: (§1) The MMP-mediated amidolytic cleavage of a suitable peptide substrate leads to an increase in fluorescent light here too. The signal intensity of the fluorescent light is directly proportional to the enzyme activity. The active concentration of a test compound at which half the enzyme is inhibited (50% signal intensity of the fluorescent light) is reported as the […].
Recombinant MMP-16 (from R&D Systems, 1785-MP) is enzymatically activated in accordance with the manufacturer's instructions using recombinant furin (from R&D Systems, 1503-SE). 1 μl of the test compound to be analysed (as a solution in DMSO, suitable concentrations e.g. 1 nM to 30 μM) is pipetted into 24 μl of activated enzyme (final concentration e.g. 1 nM) in reaction buffer (50 mM Tris/HCl pH 7.5, 10 mM CaCl2, 150 mM NaCl, 0.05% Brij®-35) in a white 384-hole microtiter plate (MTP). The enzymatic reaction is started by adding the intramolecularly quenched Mca-Lys-Pro-Leu-Gly-Leu-Dpa(Dnp)-Ala-Arg-NH2 substrate (final concentration, for example, 5 μM; R&D Systems, ES-010), so as to result in a total test volume of 50 μl. The course of the MMP-16 reaction is measured by measuring the fluorescence intensity (excitation 320 nm, emission 410 nm) over a suitable period of time (for example over 120 min at a temperature of 32° C.).

MMP-7 = target: T3, MMP-7 (Homo sapiens, UniProt P09237); experiment: In vitro MMP-7 inhibition test
T3 construct: purchased R&D Systems 907-MP
T3 sequence (P09237 95-267): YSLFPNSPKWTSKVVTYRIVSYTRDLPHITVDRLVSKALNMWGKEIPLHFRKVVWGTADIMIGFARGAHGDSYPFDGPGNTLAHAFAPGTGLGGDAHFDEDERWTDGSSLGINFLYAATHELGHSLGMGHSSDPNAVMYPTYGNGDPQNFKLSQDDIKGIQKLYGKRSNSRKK
Text: as §1
(§2) Recombinant MMP-7 (from R&D Systems, 907-MP) is chemically activated in accordance with the manufacturer's instructions using APMA. 1 μl of the test compound to be analysed (as a solution in DMSO, suitable concentrations, for example, 1 nM to 30 μM) is pipetted into 24 μl of activated enzyme (final concentration, for example, 0.5 nM) in reaction buffer (50 mM Tris/HCl pH 7.5, 10 mM CaCl2, 150 mM NaCl, 0.05% Brij®-35) in a white 384-hole microtiter plate (MTP). The enzymatic reaction is started by adding the intramolecularly quenched Mca-Pro-Leu-Gly-Leu-Dpa(Dnp)-Ala-Arg-NH2 substrate (final concentration, for example, 10 μM; R&D Systems, ES-001), so as to result in a total test volume of 50 μl. The course of the MMP-7 reaction is measured by measuring the fluorescence intensity (excitation 320 nm, emission 410 nm) over a suitable period of time (for example over 120 min at a temperature of 32° C.).

mouse MMP-9 = target: T4, mouse MMP-9 (Mus musculus, UniProt P41245); experiment: In vitro mouse MMP-9 inhibition test
T4 construct: purchased R&D Systems 909-MP
T4 sequence (P41245 108-730): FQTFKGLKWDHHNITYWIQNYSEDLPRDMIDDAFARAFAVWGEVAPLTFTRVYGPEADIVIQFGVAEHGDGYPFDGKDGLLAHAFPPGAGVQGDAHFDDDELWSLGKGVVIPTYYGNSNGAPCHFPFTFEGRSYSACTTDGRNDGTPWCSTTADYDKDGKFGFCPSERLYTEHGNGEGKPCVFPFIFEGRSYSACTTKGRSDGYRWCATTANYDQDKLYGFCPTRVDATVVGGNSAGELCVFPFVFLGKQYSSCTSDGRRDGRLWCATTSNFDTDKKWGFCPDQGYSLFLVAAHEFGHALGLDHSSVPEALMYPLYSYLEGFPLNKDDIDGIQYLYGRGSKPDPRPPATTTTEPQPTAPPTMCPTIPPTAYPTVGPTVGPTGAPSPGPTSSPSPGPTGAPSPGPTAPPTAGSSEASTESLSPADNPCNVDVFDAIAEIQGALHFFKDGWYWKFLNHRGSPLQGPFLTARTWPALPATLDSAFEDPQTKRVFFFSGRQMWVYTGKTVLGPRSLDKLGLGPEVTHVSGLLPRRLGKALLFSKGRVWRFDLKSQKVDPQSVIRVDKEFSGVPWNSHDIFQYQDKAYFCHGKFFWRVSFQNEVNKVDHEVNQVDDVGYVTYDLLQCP
Text: as §1
as §2, with “Recombinant mouse MMP-9” for “Recombinant MMP-7”, “Systems, 909-MP)” for “Systems, 907-MP)”, “example, 0.1” for “example, 0.5”, “example, 5” for “example, 10”, “the MMP-9” for “the MMP-7”

[2] = standard or high-sensitivity HME inhibition test, read-out: HME/hMMP-12 IC50
[3] = absence of serum albumin (BSA), read-out: HME IC50 (−BSA)

pIC50 [1, 2]	pIC50 (MMP-16)	pIC50 (MMP-7)	pIC50 [1, 3]	pIC50 (mouse MMP-9)	Compound
10.51	6.08	6.89			O=C(O)[C@H]1[C@H](Cn2nnc3ccc(C(F)(F)F)cc3c2=O)CC[C@@H]1C(=O)c1ccc(OCC2CCOCC2)cc1 (racemic) [Example 7, (+/−)-(1RS,2SR,5RS)-2-{[4-Oxo-6-(trifluoromethyl)-1,2,3-benzotriazin-3(4H)-yl]methyl}-5-[4-(tetrahydro-2H-pyran-4-ylmethoxy)benzoyl]cyclopentanecarboxylic acid]
9.92	5.60	5.96	9.92	5.66	Cc1ccc2nnn(C[C@@H]3CC[C@H](C(=O)c4ccc(OCCC5CCOCC5)cc4)[C@H]3C(=O)O)c(=O)c2c1 (racemic) [Example 19, (+/−)-(1RS,2SR,5RS)-2-[(6-Methyl-4-oxo-1,2,3-benzotriazin-3(4H)-yl)methyl]-5-{4-[2-(letrahydro-2H-pyran-4-yl)ethoxy]benzoyl}cyclopentanecarboxylic acid]
10.07	6.03	6.22	10.07	6.68	O=C(O)[C@@H]1[C@@H](Cn2nnc3ccccc3c2=O)CC[C@H]1C(=O)c1ccc(OCCC2CCOCC2)cc1 (single isomer, unassigned) [Example 5, (+)-(1RS,2SR,5RS)-2-[(4-Oxo-1,2,3-benzotriazin-3(4H)-yl)methyl]-5-{4-[2-(tetrahydro-2H-pyran-4-yl)ethoxy]benzoyl}cyclopentanecarboxylic acid]
9.72	5.42	6.72	9.72	5.72	O=C(O)[C@@H]1[C@@H](Cn2nnc3ccc(C(F)(F)F)cc3c2=O)CC[C@H]1C(=O)c1ccc(OCCC2CCOCC2)cc1 (single isomer, unassigned) [Example 11, (+)-(1RS,2SR,5RS)-2-{[4-Oxo-6-(trifluoromethyl)-1,2,3-benzotriazin-3(4H)-yl]methyl}-5-{4-[2-(tetrahydro-2H-pyran-4-yl)ethoxy]benzoyl}cyclopentanecarboxylic acid]
10.59	6.12	7.10	10.59		O=C(O)[C@@H]1[C@@H](Cn2nnc3ccc(C(F)(F)F)cc3c2=O)CC[C@H]1C(=O)c1ccc(SCC2CCOCC2)cc1 (single isomer, unassigned) [Example 15, (+)-(1RS,2SR,5RS)-2-{[4-Oxo-6-(trifluoromethyl)-1,2,3-benzotriazin-3(4H)-yl]methyl}-5-{4-[(tetrahydro-2H-pyran-4-ylmethyl)sulphanyl]benzoyl}cyclopentanecarboxylic acid]
10.28	5.51	6.54	10.28	6.10	Cc1ccc2nnn(C[C@H]3CC[C@@H](C(=O)c4ccc(OCCC5CCOCC5)cc4)[C@@H]3C(=O)O)c(=O)c2c1 (single isomer, unassigned) [Example 20, (+)-(1RS,2SR,5RS)-2-[(6-Methyl-4-oxo-1,2,3-benzotriazin-3(4H)-yl)methyl]-5-{4-[2-(tetrahydro-2H-pyran-4-yl)ethoxy]benzoyl}cyclopentanecarboxylic acid]
10.40	5.82	5.92	10.40	6.25	O=C(O)[C@H]1[C@H](Cn2nnc3ccccc3c2=O)CC[C@@H]1C(=O)c1ccc(OCC2CCOCC2)cc1 (stereo in doubt) [Example 1, (+/−)-(1RS,2SR,5RS)-2-[(4-Oxo-1,2,3-benzotriazin-3(4H)-yl)methyl]-5-[4-(tetrahydro-2H-pyran-4-ylmethoxy)benzoyl]cyclopentanecarboxylic acid]
10.15	6.26	6.19	10.15	6.55	O=C(O)[C@@H]1[C@@H](Cn2nnc3ccccc3c2=O)CC[C@H]1C(=O)c1ccc(OCC2CCOCC2)cc1 (stereo in doubt) [Example 2, (+)-(1RS,2SR,5RS)-2-[(4-Oxo-1,2,3-benzotriazin-3(4H)-yl)methyl]-5-[4-(tetrahydro-2H-pyran-4-ylmethoxy)benzoyl]cyclopentanecarboxylic acid]
9.43	5.15	5.49	9.43	5.82	O=C(O)[C@H]1[C@H](Cn2nnc3ccccc3c2=O)CC[C@@H]1C(=O)c1ccc(OCCC2CCOCC2)cc1 (stereo in doubt) [Example 4, (+/−)-(1RS,2SR,5RS)-2-[(4-Oxo-1,2,3-benzotriazin-3(4H)-yl)methyl]-5-{4-[2-(tetrahydro-2H-pyran-4-yl)ethoxy]benzoyl}cyclopentanecarboxylic acid]
10.68	5.74	7.02		6.03	O=C(O)[C@H]1[C@H](Cn2nnc3ccc(C(F)(F)F)cc3c2=O)CC[C@@H]1C(=O)c1ccc(OCCC2CCOCC2)cc1 (stereo in doubt) [Example 10, (+/−)-(1RS ,2S R,5RS)-2-{[4-Oxo-6-(trifluoromethyl)-1,2,3-benzotriazin-3(4H)-yl]methyl}-5-{4-[2-(tetrahydro-2H-pyran-4-yl)ethoxy]benzoyl}cyclopentanecarboxylic acid]

Compound	pIC50 [1, 2]	pIC50 (MMP-16)	pIC50 (MMP-7)	pIC50 [1, 3]	pIC50 (mouse MMP-9)
(+)-(1RS,2SR,5RS)-2-{[4-Oxo-6-(trifluoromethyl)-1,2,3-benzotriazin-3(4H)-yl]methyl}-5-[4-(tetra-hydro-2H-pyran-4-ylmethoxy)benzoyl]cyclopentanecarboxylic acid [Example 8]	10.80	6.55	7.35	10.80	
